Experiment [1] deals with leukocytes. The experiment can be described thus: Protease liberation from leukocytes by anti-IgE or allergen, measured with Chromozym TH (Example 1 method). It counts as cell-based, human. Particulars: for allergy towards the substance shown with the process (in words): general statement. On the procedure:
60 ml. venous blood of a healthy donor were carefully mixed with 30 ml. of a dextran mixture (dextran with average M.W. of 75000 2%; D-glucose 2%, EDTA 20 mmol/liter; gelatine 0.07%) in a polyethylene beaker and transferred to a siliconised separating funnel. After leaving to stand for 60 to 90 minutes at room temperature, the supernatant containing the leukocytes (about 50 ml.) was separated off and mixed with 50 ml. tris buffer mixture of pH 7.6 (tris 22 mmol/liter; sodium chloride 0.12 mol/liter; potassium chloride 5 mmol/liter; gelatine 0.05%; EDTA 1 mmol/liter; D-glucose 0.1%) and centrifuged for 15 minutes at 800 g. After decanting, the cells were washed twice in that, in each case, they were again suspended in 50 ml. of the same buffer mixture (pH 7.6) and, in each case, centrifuged for 15 minutes at 800 g. The cells were then suspended in 10 ml. of the same buffer mixture.
(§1) Two 0.9 ml. amounts of cell suspension were each transferred to a polyethylene test tube, mixed with 0.4 ml. tris buffer mixture (pH 7.6) and brought to 37° C. in a water-bath. To one sample, there was added 0.1 ml. of anti-IgE solution (Behring-Werke, No. OTNP 04/05, diluted 1:500 with tris buffer mixture; pH 7.6) and to the other sample (the control) there was pipetted 0.1 ml. of tris buffer mixture (pH 7.6) and to both samples there was added 0.1 ml. calcium chloride solution (4 mmol/liter in isotonic sodium chloride solution; pH 7.6). The two samples were kept for 60 minutes at 37° C., then each was mixed with 0.5 ml. ice-cold EDTA solution (0.1 mol/liter in isotonic sodium chloride solution; pH 7.6) and centrifuged for 10 minutes at 4° C., and at 30000 g, the supernatant being pipetted off immediately after stopping the centrifuge.
To 0.5 ml of the supernatant was added 0.5 ml. of 1.5 mmol/l. […] The extinction difference between the two samples was determined after 1, 2 and 3 hours at 405 nm.

In experiment [2] the test system is new protease from leukocytes. In words: Specific inhibitability of the new protease from leukocytes. The class given is biochemical, human. Particulars: new leukocyte protease.
Experiment [3] relates to kallikrein-like protease from leukocytes. Particulars: cited from earlier work.
Experiment [4] concerns protease liberated from leukocytes after anti-IgE stimulation. The experiment can be described thus: Splitting of chromogenic substrates by the protease liberated from leukocytes. It counts as biochemical, human. On the procedure: as §1
To 0.5 ml of the supernatant was added 0.5 ml. of 1.5 mmol/l. Chromozym TH solution (1 bottle BM 199664 dissolved in 5 ml. water). The extinction difference between the two samples was determined after 1, 2 and 3 hours at 405 nm.
From two 0.9 ml. amounts of leukocyte suspension obtained according to Example 1.1 from the blood of a healthy donor, there was obtained protease according to Example 1.2, after anti-IgE stimulation, as centrifuge supernatant. The testing of the protease took place as in Example 1.3 but in the case of one sample, instead of Chromozym TH, there was added an equimolar amount of CBO-Gly-Pro-Arg-pNA. Within the first 3 hours equal ΔE/h values (ΔE/h=0.067) were measured.
The activity of two samples treated in parallel according to Example 1 was determined with Chromozym TH and with an equimolar amount of Chromozym PL. With Chromozym PL, there was found ΔE/h=0.052 and with Chromozym TH ΔE/h=0.048.
The protease activity of two samples treated in parallel according to Example 1 was determined with Chromozym TH and with an equimolar amount of S 2238. With S 2238 there was determined ΔE/h=0.037 and with Chromozym TH ΔE/h=0.048.

[5] abbreviates: Example 4, samples treated according to Example 1, equimolar substrate.
Setting [6] is: Example 3, healthy donor, after anti-IgE stimulation, first 3 hours, equimolar substrate.
The mark [7] stands for this setting: Example 5, samples treated according to Example 1, equimolar substrate.

Peptide text beside a SMILES is read from it. * marks the point of attachment. pNA = O=[N+]([O-])c1ccc(N*)cc1; Tos = Cc1ccc(S(=O)(=O)*)cc1; Cbz = O=C(OCc1ccccc1)*

Take `CC1(C)S[C@@H]2[C@H](NC(=O)[C@H](N)c3ccccc3)C(=O)N2[C@H]1C(=O)O` [ampicillin]: in experiment [1] (donor allergic to ampicillin), the “additional extinction change ΔE/h versus unstimulated comparative sample” value was 0.558 h⁻¹. Besides, in experiment [1] (donor allergic to ampicillin, 0.9 ml. leukocyte suspension), the “measurement value ΔE/h of the stimulated sample” value stood at 0.893 h⁻¹. Further, the “allergy towards the substance shown with the process (in words)” value in experiment [1] was “demonstrated”.
In the case of nickel, the “allergy towards the substance shown with the process (in words)” value in experiment [1] is recorded as “demonstrated”.
As to aprotinin [reference compound], the “specific inhibitability by aprotonin I50” value in experiment [2] was determined as 1 mg/mL. Moreover, the “specific inhibitability by aprotinin I50” value in experiment [3] (known kallikrein-like protease) is “about 50 μg./ml”.
For `Cc1ccc(S(=O)(=O)NCC(=O)N2CCC[C@H]2C(=O)N[C@@H](CCCCN)C(=O)Nc2ccc([N+](=O)[O-])cc2)cc1` [Chromozym PL, Tos-Gly-Pro-Lys-pNA] (Tos-Gly-Pro-Lys-pNA), the “ΔE/h with the substrate” value in experiment [4] (setting [5]) worked out at 0.052 h⁻¹.
On to `N=C(N)NCCC[C@H](NC(=O)[C@@H]1CCCN1C(=O)CNC(=O)OCc1ccccc1)C(=O)Nc1ccc([N+](=O)[O-])cc1` [CBO-Gly-Pro-Arg-pNA, reference compound] (Cbz-Gly-Pro-Arg-pNA), for which the “ΔE/h with the substrate” value in experiment [4] (setting [6]) turned out to be 0.067 h⁻¹.
Consider `NC(N)=NCCC[C@H](NC(=O)[C@@H]1CCCCN1C(=O)[C@H](N)Cc1ccccc1)C(=O)Nc1ccc([N+](=O)[O-])cc1` [S 2238, Phe-Pip-Arg-pNA], for which, in experiment [4] (setting [7]), the “ΔE/h with the substrate” value is 0.037 h⁻¹.
On to `CC(=O)O.Cc1ccc(S(=O)(=O)NCC(=O)N2CCC[C@H]2C(=O)N[C@@H](CCCNC(=N)N)C(=O)Nc2ccc([N+](=O)[O-])cc2)cc1` [Chromozym TH, tosyl-glycyl-prolyl-arginine-p-nitroanilide acetate] (Tos-Gly-Pro-Arg-pNA), for which the figures for the “ΔE/h with the substrate” value in experiment [4] (setting [6]), in experiment [4] (setting [5]) and in experiment [4] (setting [7]) were 0.067 h⁻¹, 0.048 h⁻¹ and 0.048 h⁻¹, respectively.

B1: soya bean trypsin inhibitor (protein, UniProt P01070 25-205, looked up)
Trypsin inhibitor A: DFVLDNEGNPLENGGTYYILSDITAFGGIRAAPTGNERCPLTVVQSRNELDKGIGTIISSPYRIRFIAEGHPLSLKFDSFAVIMLCVGIPTEWSVVEDLPEGPAVKIGENKDAMDGWFRLERVSDDEFNNYKLVFCPQQAEDDKCGDIGISIDHDDGTRRLVVSKNKPLVVQFQKLDKESL
For the molecule B1, the “inhibition by STI” value in experiment [3] (0.1 mole/l. STI) is listed as 11%.
